# Several values for one entry are separate records, joined by “and”; a condition that tells them apart may be missing. Identical values can stand only once.
# Test system: DENV2
# Assay: Antiviral activity (viral infectivity) assay, single-cycle viral yield
# Assay type: cell-based, Dengue virus 2
# Settings: 3 μM
row,Structure (SMILES),(Anti-DENV2)% at 3 μM
1,Cc1nc2c(C(=O)NCc3cccnc3)cnn2c(O)c1Cc1ccc(F)cc1 [JBJ-16-105],20%

# Same assay, conditions: 10 μM
row,Structure (SMILES),(Anti-DENV2)% at 10 μM
1,Cc1nc2c(C(=O)NCc3cccnc3)cnn2c(O)c1Cc1ccc(F)cc1 [JBJ-16-105],86%

# Same assay, conditions: Dengue virus, DENV2, read-out: IC90 (DENV2 infectivity)
row,Structure (SMILES),IC90
1,CCOc1ccc(CCNC(=O)c2cnn3c(O)cc(C4CCN(C(=O)OC(C)(C)C)CC4)nc23)cc1 [Compound C429-0385],~3000 nM

# Same assay, conditions: Dengue virus, DENV2; concentration that reduces single-cycle viral yield by 10-fold; read-out: IC90 (DENV2 infectivity)
row,Structure (SMILES),IC90
1,COc1ccc(Nc2cc(C)c3cc(NC(=O)c4ccc(N(C)C)cc4)ccc3n2)cc1 [Compound C066-4182],17000 ± 4500 nM

# Test system: not listed separately
# Assay: Cytotoxicity assay (CellTiter-Glo)
# Settings: hamster
# Procedure: BHK21 cells (MEM with 2% FBS) were incubated with varying concentrations of inhibitor in a 96-well white plate for 24 hours at 37° C. and 5% CO2. CellTiter-Glo (Promega) solution was used to measure viability following the manufacturer's instructions. Luminescence was measured using a Biotek Synergy plate reader. […] The maximum concentration tested was 100 μM.
row,Structure (SMILES),CC50 at 24 h
1,COc1ccc(Nc2cc(C)c3cc(NC(=O)c4ccc(N(C)C)cc4)ccc3n2)cc1 [Compound C066-4182],> 50000 nM
2,CCOc1ccc(CCNC(=O)c2cnn3c(O)cc(C4CCN(C(=O)OC(C)(C)C)CC4)nc23)cc1 [Compound C429-0385],> 100000 nM

# Target: T1, DENV2 sE2 (Dengue virus type 2, UniProt P14340)
# Assay: biochemical
# Assay type: binding, Dengue virus 2
# Settings: not given
row,Structure (SMILES),Kd
1,COc1ccc(Nc2cc(C)c3cc(NC(=O)c4ccc(N(C)C)cc4)ccc3n2)cc1 [Compound C066-4182],2200 nM

# Target: T1, DENV2 sE2
# Assay: biochemical
# Assay type: binding, Dengue virus 2
# Settings: GNF2-biotin on donor beads, His6-tagged DENV2 sE2 on acceptor beads
row,Structure (SMILES),competition of AlphaScreen signal
1,"NC(=O)c1cccc(-c2cc(Nc3ccc(OC(F)(F)F)cc3)ncn2)c1 [GNF2, reference compound]",competed away in a dose-dependent fashion

# Same assay, conditions: IC50 (AlphaScreen), Table 2
row,Structure (SMILES),IC50
1,Cc1nc2c(C(=O)NCc3cccnc3)cnn2c(O)c1Cc1ccc(F)cc1 [JBJ-16-105],> 10000 nM

# Same assay, conditions: IC50 (AlphaScreen), Table 3
row,Structure (SMILES),IC50
1,Cc1nc2c(C(=O)NCc3ccc4c(c3)OCO4)cnn2c(O)c1Cc1ccccc1F [Compound C218-0288],1900 nM
2,CCOc1ccc(CCNC(=O)c2cnn3c(O)cc(C4CCN(C(=O)OC(C)(C)C)CC4)nc23)cc1 [Compound C429-0385],7600 nM and 5300 nM

# Same assay, conditions: IC50 (AlphaScreen), concentration that inhibits 50% luminescence signal in the AlphaScreen competition assay; Table 1
row,Structure (SMILES),IC50
1,COc1ccc(Nc2cc(C)c3cc(NC(=O)c4ccc(N(C)C)cc4)ccc3n2)cc1 [Compound C066-4182],1400 ± 1100 nM

# Same assay, conditions: Table 2
row,Structure (SMILES),IC50 (AlphaScreen)
1,Cc1nc2c(C(=O)NC3CCN(C)CC3)cnn2c(O)c1Cc1ccc(F)cc1 [JBJ-16-103],No competition
2,Cc1nc2c(C(=O)NCC3CCCN(C)C3)cnn2c(O)c1Cc1ccc(F)cc1 (stereo not drawn) [JBJ-16-104],No competition

# Test system: not listed separately
# Assay: Mouse microsomal stability
# Settings: mouse microsomes, T1/2 (mouse microsome), mouse microsomal stability
row,Structure (SMILES),half-life
1,COc1ccc(Nc2cc(C)c3cc(NC(=O)c4ccc(N(C)C)cc4)ccc3n2)cc1 [Compound C066-4182],5.3 min

# Test system: DENV1, 2, 3, 4; ZIKV
# Assay: Plaque reduction assay (PRNT)
# Assay type: cell-based
# Settings: Zika virus, DENV1, read-out: EC50 (PRNT)
# Procedure: DENV1, 2, 3, 4 were tested on BHK-21 cells, and ZIKV was tested on Vero cells. Virus inocula were diluted in EBSS to 2500 pfu/ml as the final concentration, and were pre-incubated with different concentrations of small molecule inhibitors (2% DMSO vol/vol final concentration) for 45 min at 37° C., 5% CO2. The mixture (200 μl, 500 pfu of virus) was then added to cells for 1 hour (37° C., 5% CO2) to allow infection, after which the inoculum was removed, and the cells were washed with 1×PBS to remove unbound virus and compound. Cells were overlaid with carboxylmethylcellulose and incubated at 37° C., 5% CO2 to allow the formation of plaques (4 days for DENV1, 2, 3, 4 and 2-3 days for ZIKV). The cells were fixed and plaques visualized by staining of the cell monolayers with crystal violet Empirical analysis was performed to determine the PRNT50 (EC50 (PRNT)) value, defined as the inhibitor concentration needed to reduce plaque formation by 50%.
row,Structure (SMILES),EC50
1,CCOc1ccc(CCNC(=O)c2cnn3c(O)cc(C4CCN(C(=O)OC(C)(C)C)CC4)nc23)cc1 [Compound C429-0385],600 nM

# Test system: VSV-eGFP
# Assay: microbe, parasite or virus in culture
# Assay type: cell-based, vesicular stomatitis virus
# Settings: Vesicular stomatitis virus, 6 h, read-out: VSV 5 μM
row,Structure (SMILES),inhibition at 5 µM
1,COc1ccc(Nc2cc(C)c3cc(NC(=O)c4ccc(N(C)C)cc4)ccc3n2)cc1 [Compound C066-4182],5%

# Same assay, conditions: Vesicular stomatitis virus, 6 h, read-out: VSV 10 μM
row,Structure (SMILES),inhibition at 10 µM
1,COc1ccc(Nc2cc(C)c3cc(NC(=O)c4ccc(N(C)C)cc4)ccc3n2)cc1 [Compound C066-4182],22%
